Measurements from US12472223B2, “Methods for reducing symptoms of multiple sclerosis using a six-amino acid long peptide that inhibits CD40-CD154 interaction” (OP-T LLC, priority 2019, dated 2025).

Key:
CD4+ and CD8+ cells = assay: CD4/CD8 ratio in blood of peptide-treated NOD mice (flow cytometry); assay type: in vivo, mouse
Protocol: (§1) Peptides were designed based on the amino acid sequence of mouse CD154 protein (SEQ ID NO:1) in the SwissPro database. These pre-designed peptides were then ordered from as made-to-order by New England Peptide. The lyophilized peptides were suspended in phosphate buffered saline at 1 mg/ml. 100 μg of a particular peptide was then injected into the tail vein of 8-9 week old NOD mice. Control mice received 100 μl of phosphate buffered saline. This is well before the onset of diabetes, but after damage to pancreatic islets has begun. Three days after the initial injection, another 100 μg of peptide (or 100 μl of phosphate buffered saline in the case of the Control mice) was injected into the tail vein. Mice were then injected with peptide (or phosphate buffered saline) on a weekly basis. At 10 weeks of age, mice were monitored for diabetes, as indicated by a blood glucose level greater than 250 mg/dL for three consecutive days. During this time, blood was also taken from the tail vein, or by sub-mandibular venal puncture, and the level of CD4+ and CD8+ cells determined by flow cytometry using antibodies for CD4 protein and CD8 protein.

CD69 = CD69 expression on T cells from dLN and spleen of KGYY6 treated EAE mice; assay type: in vivo, mouse; conditions: for number of Th40 cells expressing CD69: after 33 days
Protocol: In this study, the number of CD69 expressing cells were measured and determined in draining lymph nodes (dLN) and spleens harvested from EAE mice at the end of the studies as described in Examples 7, 8, and 9 and the administration of KGYY6, after 33 days.
Lymphocytes from dLN or spleen were stained and gated on the Th40 or conventional CD4 T cells then CD69 expression was analyzed.

CD62L = CD62L expressing T cells from dLN and spleen of KGYY6 treated EAE mice; assay type: in vivo, mouse; conditions: Th40 and conventional CD4 T cells, versus PBS
Excerpt: L-selectins are expressed on T cells and, depending upon activation status, expression rapidly cycles between high and low levels, thus allowing cells to crawl to areas of inflammation, and to extravasate into the tissue. (Mao-Draayer, Y., et al., Clinical Immunol. 175:10-5, 2017; Butcher, E. C., et al., Science, 272 (5258): 60-6, 1997). CD62L is an L-selectin that has generally been associated with naïve T cells, given its importance in lymph node retention. (Chao, C. C., et al., J. Immunol., 159:1686, 1997; Tedder, T. F., et al., Behring Inst. Mitt., 92:165, 1993). Rather than considering CD62L as a biomarker for naïve T cells, it may be possible that CD62L may be involved in lymph node retention of potentially pathogenic effector cells. The number of CD62L expressing Th40 and conventional CD4 T cells from both spleens and dLN of KGYY6 treated mice were compared to mice treated with vehicle (PBS) only (the control).

EAE induced C57BL/6 mice = assay: EAE disease score in MOG35-55 induced C57BL/6 mice; assay type: in vivo, mouse
Excerpt: One group of mice-C57BL/6 mice from Taconic (Hudson, NY, USA) received KGYY6 (SEQ ID NO: 29) intravenous (IV) injections 3 days and 1 day prior to EAE induction, while another control group received a vehicle of phosphate buffered saline (PBS). EAE was then induced and the mice started to show symptoms on day 10, which is standard for these mice under these conditions. This is further depicted in FIG. 11. On days 13, 20, and 27, the KGYY6 group of mice receive a boost of peptide, while the other group again received PBS via IV injection. […] By day 13, there was a statistically significant difference that lasted throughout the experiment. In FIG. 11—*—asterisks—denote p-value: *—one asterisk is <0.05; **—two asterisks is <0.01; […] is <0.001; and ****—four asterisks is <0.0001. This is a two-way ANOVA with Sidak's multiple comparisons test. Arrows in above lines in FIG. 11 represent days −3, −1, 13, 20, and 27, which correspond to days on which the mice received the KGYY6. Mice were disease scored daily in this study as described in more detail below.
The EAE mouse model can be highly variable even when attempting to control all possible parameters. This variability in EAE may be due to seasonal variations as well as litter differences in the mice. In order to minimize litter-to-litter and seasonal variations, experiments and studies were performed that had 10 mice per group and the mice were randomly mixed once they arrived from the vendor. Female 10-12 week old C57BL/6 mice were immunized subcutaneously on the upper back/neck with 100 μl completely emulsified MOG35-55 peptide (50 μg in 50 μl PBS) and complete Freund's adjuvant (CFA; 75 μg M. Tuberculosis H37 RA (Becton Dickinson and Company (Franklin Lake, NJ, USA)) in 50 μl incomplete Freund's adjuvant (mineral oil)), followed by i.p. pertussis toxin (PT; 200 ng (Sigma-Aldrich® (St. Louis, MO, USA)) in 100 μl PBS) injections. Mice were then randomly assigned to a treatment cohort or vehicle control cohort. One cohort of mice received intravenous injections of the KGYY6 (SEQ ID NO: 29)—25 μg in 100 μl PBS per mouse on days −3, −1, 13, 20, and 27 as described above. Day 0 is the reference starting point for EAE induction. Another cohort received peptide on days −3, −1, 6, 11, 13, and 15. Vehicle control mice received injections of PBS.
All mice were monitored daily for disease and scored in the following manner: 0—no abnormalities; 0.5—clutching hind limbs; 1—limp tail or weak hind limbs and/or wobbly gait; 1.5—limp tail and clutching hind limbs; 2—limp tail and weak hind limbs and/or wobbly gait wherein the mouse supports itself and propels itself using hind limbs; 2.5—limp tail and weak hind limbs and/or wobbly gait wherein the mouse cannot support and propel itself using hind limbs, but the paws are moving. 3—limp tail and one weak hind limb, while the other hind limb is completely paralyzed wherein the mouse uses the weak hind limb to propel itself in some fashion. […] 5—complete paralysis of hind quarter and weak forelimb(s). The data are reported as the mean daily clinical score for all animals in each group. Mice reaching a level 5 or losing more than 20% of their bodyweight are euthanized.
For this study, a group of EAE induced mice were treated with KGYY6 via intravenous (IV) injections on days 11, 13, and 15. Another group of mice were pretreated on days −3 and −1, and received further treatments on days 6, 11, 13, and 15. […]

intracellular cytokines = assay: Intracellular cytokine expression in Th40 and conventional CD4 T cells ex vivo from KGYY6 treated EAE mice; parameters: species or system mouse
Protocol: Intracellular cytokine expression profiles in Th40 and conventional CD4 T cells were examined immediately ex-vivo after 33 days and at the end of the study as described in Example 7.
Other cytokines, such as TNFα, IFNγ, IL-2, and IL-17A were unchanged in response to KGYY6 treatment in both cell types. […] Lymphocytes from dLN or spleen were stained and gated on the Th40 or conventional CD4 T cells then intracellular levels were analyzed. FIGS. 18A-D represent the Th40 cells from spleen. FIGS. 19A-D represent the Th40 cells from dLN. FIGS. 20A-D represent conventional CD4 T cells from the spleen. FIGS. 21A-D represent conventional CD4 T cells from dLN.

CD40 = assay: FITC-conjugated KGYY6 staining of PBMC, dLN and splenic lymphocytes; assay type: binding, mouse
Excerpt: To confirm that KGYY6 binds to the intended target cells, peripheral blood was […], dLN lymphocytes, and splenic lymphocytes from mice at 6 and 13 days out from receiving the full EAE regimen. These cells were then stained with an FITC-conjugated KGYY6.
To confirm that the KGYY6 peptide binds specifically to CD40, PBMC was stained from C57BL/6 mice that have the CD154-interacting domain of CD40 knocked out (B6.CD40KO).
FIG. 24A is a dot plot of PBMC, dLN, and splenic lymphocytes that were harvested and then stained. […] CD40 with heat-mapping for KGYY6. Dot plots on the right are CD62L v. CD44 with heat-mapping for KGYY6. […] The results shown in FIG. 24A are from 6 days post EAE induction. FIG. 24B is a histogram depicting KGYY6 staining of B6.CD40KO, control, non-induced C57BL/6, and EAE-induced C57BL/6 mice, 6 and 13 days post induction. Data represents two mice at day 6, three mice at day 13, all with similar results.

[1] = tested on: Th40 or conventional CD4 T cells; assay: Memory cell and Th40 cell levels in KGYY6 treated EAE mice; assay type: in vivo, mouse
Protocol: This study sought to determine whether treatment with KGYY6 had any effect on memory cell levels when administered as described in Example 7 above.
C57BL/6 mice were EAE induced then lymphocytes were stained and gated on Th40 or conventional CD4 T cells and effector and central memory cell levels analyzed in dLN (FIGS. 22A-22D) and spleen (FIGS. 23A-D). Significance was calculated by t-test.

NOD mice = assay: Development of diabetes in NOD mice treated with CD154 peptides; assay type: in vivo, mouse; conditions: 100 μg peptide into tail vein of 8-9 week old NOD mice, again after 3 days, then weekly; diabetes = blood glucose >250 mg/dL for three consecutive days
Protocol: as §1

[2] = Th40 and conventional CD4 T cells, dLN and spleen
[3] = spleen and dLN, Th40 or conventional CD4 T cells

CSCC[C@H](NC(=O)[C@@H](NC(=O)[C@H](Cc1ccc(O)cc1)NC(=O)[C@H](Cc1ccc(O)cc1)NC(=O)CNC(=O)[C@H](CCCCN)NC(=O)[C@H](CCCCN)NC(=O)[C@H](C)NC(=O)[C@H](Cc1c[nH]c2ccccc12)NC(=O)[C@H](CCC(N)=O)NC(=O)[C@H](CC(C)C)NC(=O)[C@@H](N)C(C)C)[C@@H](C)O)C(=O)N[C@@H](CCCCN)C(=O)N[C@@H](CO)C(=O)N[C@@H](CC(N)=O)C(=O)O [15-mer peptide, VLQWAKKGYYTMKSN]
compromise of the immune system as determined by the CD4/CD8 ratio (CD4+ and CD8+ cells): did not result in compromise of the immune system

AKKGYY [KGYY6, 6-amino acid core region of the 15-mer]
CD69 expressed per cell (CD69; Th40 cells from spleen, versus vehicle): significantly more CD69 per cell | CD69 expressed per cell (CD69; conventional CD4 T cells): did no change the amount of CD69 per cell | number of conventional CD4 T cells expressing CD69 (CD69; dLN and spleen, versus controls): increased by KGYY6 treatment | number of Th40 cells expressing CD69 (CD69; dLN, versus vehicle): increased | number of Th40 cells expressing CD69 (CD69; spleen, versus untreated): significantly greater number | number of CD62L expressing cells (CD62L): no difference in number of CD62L expressing cells | EAE disease course (EAE induced C57BL/6 mice; 25 μg IV on days -3, -1, 13, 20, 27, versus PBS control): significantly less severe | EAE disease course (EAE induced C57BL/6 mice; pretreated days -3, -1, further treatments days 6, 11, 13, 15, versus control): significantly less severe disease course | EAE disease severity, early versus later boosts (EAE induced C57BL/6 mice; pretreated, boosts from day 6 versus from day 13): overall less severe disease if the boosts started early | EAE disease course (EAE induced C57BL/6 mice; treat-at-symptom group, IV on days 11, 13, 15): less severe disease course compared to control | IFNγ (intracellular cytokines; [2]): unchanged | IL-2 (intracellular cytokines; [2]): unchanged | IL-17A (intracellular cytokines; [2]): unchanged | TNFα (intracellular cytokines; [2]): unchanged | intracellular IL-10 (intracellular cytokines; Th40 cells, dLN or spleen): no difference in intracellular IL-10 expression | intracellular IL-10 (intracellular cytokines; conventional CD4 T cells from dLN, day 33): increase in intracellular IL-10 | staining of memory cells (CD62L versus CD44) (CD40; PBMC and spleen samples): stained primarily effector (CD44^+CD62L^−) and central memory (CD44^+CD62L^+) cells | staining of B6.CD40KO cells (CD40; PBMC, CD154-interacting domain of CD40 knocked out): did not stain the B6.CD40KO cells | staining of CD40- cells (CD40; PBMC, dLN, spleen): not the CD40^− cells | staining of CD4+CD40+ cells (CD40; PBMC, dLN, spleen, 6 and 13 days post EAE induction): stained the CD4^+CD40^+ cells | staining of memory cells (CD62L versus CD44) (CD40; dLN samples): more diffuse pattern in dLN samples | staining of C57BL/6 PBMC (CD40; non-induced and EAE-induced C57BL/6 mice): readily stained both the non-induced and EAE-induced C57BL/6 mice | Th40 cell population ([1]; EAE mice treated with KGYY6): did not cause a decrease in the Th40 cell population | CD44+CD62L+ (central memory) cell levels [1, 3]: no difference in the levels of those memory phenotypes | CD44+CD62L- (effector memory) cell levels [1, 3]: no difference in the levels of those memory phenotypes | development of diabetes in NOD mice (NOD mice): significant effects on the development of diabetes

KGYY (listed as Mus musculus)
EAE scores (EAE induced C57BL/6 mice; 4-mer administered prior to onset and then post onset, versus untreated mice): lower EAE scores compared to untreated mice

WAKKGYYTMK [10-mer]
development of diabetes in NOD mice (NOD mice): significant effects on the development of diabetes
